Laboratory results reported in patent publication US8383581B2, “Short-chain peptides as parathyroid hormone (PTH) receptor agonist” (Cadila Healthcare Limited, priority 2009, dated 2013).
Where a SMILES comes first, the peptide text is derived from it. [ ]: non-standard residue; d: D form. ξ: configuration not given here. ξBip(2'-Et-4'-OMe) = CCc1cc(OC)ccc1-c1ccc(CC(N)C(=O)O)cc1; Arg(NO2) = N=C(NCCC[C@H](N)C(=O)O)N[N+](=O)[O-]; ξαMePhe(2,6-F2) = CC(N)(Cc1c(F)cccc1F)C(=O)O; ξαMe(hhPhe) = CC(N)(CCCc1ccccc1)C(=O)O; ξαMePhe(2-F) = CC(N)(Cc1ccccc1F)C(=O)O; hhPhe = N[C@@H](CCCc1ccccc1)C(=O)O; hArg = N=C(N)NCCCC[C@H](N)C(=O)O; ξαMeNle = CCCCC(C)(N)C(=O)O; ξαMeV = CC(C)C(C)(N)C(=O)O; Nle = CCCC[C@H](N)C(=O)O; Ac5c = NC1(C(=O)O)CCCC1; Ac3c = NC1(C(=O)O)CC1; Aib = CC(C)(N)C(=O)O

Assays:
Type in all cases: in vitro ADME
[1] = Stability of peptides in human plasma
Summary of the method: (§1)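 Peptides at 2 μM final incubated 0–24 h at 37 °C (50 mM triethanolamine-HCl, pH 7.8) in each matrix, matrix level set to degrade ~50% PTH(1-34) in 1 h; TFA-quenched, C18 HPLC at 206 nm with ESI-MS peak identification; percent degradation from peak areas at each time point.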

[2] = Stability of peptides in simulated gastric fluid (pH 1.5; HCl, NaCl and Pepsin); details: for half-life / half-life (t1/2) in simulated gastric fluid: simulated gi fluid
[3] = Stability of peptides in simulated intestinal fluid (pH 7.5); details: for half-life / half-life (t1/2) in simulated intestinal fluid: simulated gi fluid
Summary of the method: as §1

[4] = Stability of peptides in human liver microsomes
Summary of the method: as §1

[5] = simulated gastric fluid, 2 μM, pH 1.5
[6] = simulated intestinal fluid, 2 μM, pH 7.5
[7] = human, microsomes, 2 μM, pH 7.8

SMILES | half-life ([1]; human, plasma) | metabolised at 24 h, 2 μM ([1]; human, plasma, pH 7.8) | % degradation of peptides in 24 h when incubated with simulated gastric fluid [2, 5] | half-life (t1/2) in simulated gastric fluid ([2]; pH 1.5) | half-life (t1/2) in simulated intestinal fluid ([3]; pH 7.5) | % degradation of peptides in 24 h when incubated with simulated intestinal fluid [3, 6] | half-life ([4]; human, microsomes) | % degradation of peptides in 24 h when incubated with liver microsomes [4, 7] | half-life ([2]; pH 1.5) | half-life ([3]; pH 7.5) | further results
CC[C@H](C)[C@H](NC(=O)[C@H](CCC(=O)O)NC(=O)[C@H](CO)NC(=O)[C@@H](NC(=O)[C@@H](N)CO)C(C)C)C(=O)N[C@@H](CCC(N)=O)C(=O)N[C@@H](CC(C)C)C(=O)N[C@@H](CCSC)C(=O)N[C@@H](Cc1cnc[nH]1)C(=O)N[C@@H](CC(N)=O)C(=O)N[C@@H](CC(C)C)C(=O)NCC(=O)N[C@@H](CCCCN)C(=O)N[C@@H](Cc1cnc[nH]1)C(=O)N[C@@H](CC(C)C)C(=O)N[C@@H](CC(N)=O)C(=O)N[C@@H](CO)C(=O)N[C@@H](CCSC)C(=O)N[C@@H](CCC(=O)O)C(=O)N[C@@H](CCCN=C(N)N)C(=O)N[C@H](C(=O)N[C@@H](CCC(=O)O)C(=O)N[C@@H](Cc1c[nH]c2ccccc12)C(=O)N[C@@H](CC(C)C)C(=O)N[C@@H](CCCN=C(N)N)C(=O)N[C@@H](CCCCN)C(=O)N[C@@H](CCCCN)C(=O)N[C@@H](CC(C)C)C(=O)N[C@@H](CCC(N)=O)C(=O)N[C@@H](CC(=O)O)C(=O)N[C@H](C(=O)N[C@@H](Cc1cnc[nH]1)C(=O)N[C@@H](CC(N)=O)C(=O)N[C@@H](Cc1ccccc1)C(=O)O)C(C)C)C(C)C [PTH(1-34), reference compound] |  |  |  |  |  |  |  |  |  |  | % degradation of peptides in 24 h when incubated with human plasma ([1]; 24 h, human plasma, 37° C., peptide 2 μM): 97%; half-life ([1]; human plasma, 37° C., peptide 2 μM, read-out: half-life (t1/2) in human plasma): 0.5 h; metabolised at 1 h ([1]; pH 7.8, human plasma, within 1 h, 37° C., preliminary experiments, read-out: degradation): ~50%; % degradation of peptides in 24 h when incubated with simulated gastric fluid ([2]; simulated gastric fluid pH 1.5, 37° C., peptide 2 μM): 100%; metabolised at 1 h ([2]; pH 1.5, simulated gastric fluid, within 1 h, 37° C., preliminary experiments, read-out: degradation): ~50%; half-life ([2]; simulated gastric fluid pH 1.5, 37° C., peptide 2 μM, read-out: half-life (t1/2) in simulated gastric fluid): 0.1 h; % degradation of peptides in 24 h when incubated with simulated intestinal fluid ([3]; simulated intestinal fluid pH 7.5, 37° C., peptide 2 μM): 100%; metabolised at 1 h ([3]; pH 7.5, simulated intestinal fluid, within 1 h, 37° C., preliminary experiments, read-out: degradation): ~50%; half-life ([3]; simulated intestinal fluid pH 7.5, 37° C., peptide 2 μM, read-out: half-life (t1/2) in simulated intestinal fluid): 0.2 h; % degradation of peptides in 24 h when incubated with liver microsomes ([4]; human liver microsomes, 37° C., peptide 2 μM): 100%; half-life ([4]; human liver microsomes, 37° C., peptide 2 μM, read-out: half-life (t1/2) in liver microsomes): 0.1 h; metabolised at 1 h ([4]; pH 7.8, human liver microsomes, within 1 h, 37° C., preliminary experiments, read-out: degradation): ~50%
CCCC[C@H](NC(=O)[C@H](CC(C)C)NC(=O)[C@H](CCC(N)=O)NC(=O)[C@@H](NC(=O)[C@H](CCC(=O)O)NC(=O)C1(NC(=O)[C@@H](NC(=O)C2(N)CC2)C(C)C)CC1)[C@@H](C)CC)C(=O)N[C@@H](Cc1c[nH]cn1)C(=O)N[C@@H](CCC(N)=O)C(=O)N[C@@H](CCCCNC(=N)N)C(=O)N[C@@H](C)C(=O)N[C@@H](CCCCN)C(=O)NC(Cc1ccc(-c2ccc(OC)cc2CC)cc1)C(=O)N[C@@H](CCCc1ccccc1)C(N)=O (stereo partly drawn) [Seq. ID. 610] (H-[Ac3c]V[Ac3c]EIQL[Nle]HQ[hArg]AK[ξBip(2'-Et-4'-OMe)][hhPhe]-NH2) | 8 h | 71% | 14% | (8) h | (6) h | 40% | 1 h | 78% |  |  | 
CCCC[C@H](NC(=O)C(C)(Cc1ccccc1F)NC(=O)[C@H](CCC(N)=O)NC(=O)[C@@H](NC(=O)[C@H](CCC(=O)O)NC(=O)C(C)(C)NC(=O)[C@@H](NC(=O)C(C)(C)N)C(C)C)[C@@H](C)CC)C(=O)N[C@@H](Cc1c[nH]cn1)C(=O)N[C@@H](CCC(N)=O)C(=O)N[C@@H](CCCCNC(=N)N)C(=O)N[C@@H](C)C(=O)NC(C)(C)C(=O)NC(C)(Cc1ccccc1F)C(N)=O (stereo partly drawn) [Seq. ID. 161] (H-[Aib]V[Aib]EIQ[ξαMePhe(2-F)][Nle]HQ[hArg]A[Aib][ξαMePhe(2-F)]-NH2) | 8 h | 78% | 14% | (8) h | (6) h | 43% | 1 h | 80% |  |  | 
CCCCC(C)(NC(=O)[C@H](CC(C)C)NC(=O)[C@H](CCC(N)=O)NC(=O)[C@@H](NC(=O)[C@H](CCC(=O)O)NC(=O)C(C)(C)NC(=O)[C@@H](NC(=O)C1(NC(=O)C(C)(N)C(C)C)CCCC1)C(C)C)[C@@H](C)CC)C(=O)N[C@@H](Cc1c[nH]cn1)C(=O)N[C@@H](CCC(N)=O)C(=O)N[C@@H](CCCCNC(=N)N)C(=O)N[C@@H](C)C(=O)N[C@@H](CCCCNC(=N)N)C(=O)NC(C)(Cc1ccccc1F)C(=O)NC(C)(CCCc1ccccc1)C(N)=O (stereo partly drawn) [Seq. ID. 939] (H-[ξαMeV][Ac5c]V[Aib]EIQL[ξαMeNle]HQ[hArg]A[hArg][ξαMePhe(2-F)][ξαMe(hhPhe)]-NH2) | > 20 h | 10% | 08% |  |  | 09% |  | 33% | > 22 h | > 22 h | half-life (t1/2) in liver microsomes ([4]; human, microsomes): (5) h
CCc1cc(OC)ccc1-c1ccc(CC(NC(=O)[C@H](CCCCNC(=N)N)NC(=O)[C@H](C)NC(=O)[C@H](CCCCNC(=N)N)NC(=O)[C@H](CCC(N)=O)NC(=O)[C@H](Cc2c[nH]cn2)NC(=O)[C@H](CCSC)NC(=O)[C@H](CC(C)C)NC(=O)[C@H](CCC(N)=O)NC(=O)[C@@H](NC(=O)[C@H](CCC(=O)O)NC(=O)C(C)(C)NC(=O)[C@@H](NC(=O)C2(NC(=O)C(C)(N)C(C)C)CCCC2)C(C)C)[C@@H](C)CC)C(=O)NC(C)(CCCc2ccccc2)C(N)=O)cc1 (stereo partly drawn) [Seq. ID. 906] (H-[ξαMeV][Ac5c]V[Aib]EIQLMHQ[hArg]A[hArg][ξBip(2'-Et-4'-OMe)][ξαMe(hhPhe)]-NH2) |  | 78% | 100% |  |  | 100% | 0.5 h | 100% | 0.5 h | 0.5 h | half-life (t1/2) in human plasma ([1]; human, plasma): (9) h
CCCC[C@H](NC(=O)C(C)(Cc1c(F)cccc1F)NC(=O)[C@H](CCC(N)=O)NC(=O)[C@@H](NC(=O)[C@H](CCC(=O)O)NC(=O)C(C)(C)NC(=O)[C@@H](NC(=O)C1(N)CCCC1)C(C)C)[C@@H](C)CC)C(=O)N[C@@H](Cc1c[nH]cn1)C(=O)N[C@@H](CCC(N)=O)C(=O)N[C@@H](CCCCNC(=N)N)C(=O)NC(C)(C)C(=O)N[C@@H](CCCNC(=N)N[N+](=O)[O-])C(=O)NC(C)(Cc1ccccc1F)C(N)=O (stereo partly drawn) [Seq. ID. 260] (H-[Ac5c]V[Aib]EIQ[ξαMePhe(2,6-F2)][Nle]HQ[hArg][Aib][Arg(NO2)][ξαMePhe(2-F)]-NH2) | 8 h | 70% | 15% | (8) h | (6) h | 41% | 1 h | 77% |  |  | 
CCCC[C@H](NC(=O)[C@H](CC(C)C)NC(=O)[C@H](CCC(N)=O)NC(=O)[C@@H](NC(=O)[C@H](CCC(=O)O)NC(=O)C(C)(C)NC(=O)[C@@H](NC(=O)C(C)(C)N)C(C)C)[C@@H](C)CC)C(=O)N[C@@H](Cc1c[nH]cn1)C(=O)N[C@@H](CCC(N)=O)C(=O)N[C@@H](CCCCNC(=N)N)C(=O)N[C@@H](C)C(=O)N[C@@H](CCCNC(=N)N)C(=O)NC(Cc1ccc(-c2ccc(OC)cc2CC)cc1)C(=O)N[C@@H](CCCc1ccccc1)C(N)=O (stereo partly drawn) [Seq. ID. 730] (H-[Aib]V[Aib]EIQL[Nle]HQ[hArg]AR[ξBip(2'-Et-4'-OMe)][hhPhe]-NH2) | > 22 h | 5% | 55% |  |  | 00% | 2 h | 84% | 4 h | > 24 h | 
